# US20240287076A1, “COMPOUNDS FOR TARGETING DEGRADATION OF BRUTON'S TYROSINE KINASE” (BIOGEN MA INC., priority 2021, published 2024)
# Biological target: T1, BTK (Homo sapiens, UniProt Q06187)
# T1 construct: The GM01501.3 cell line endogenously expresses BTK with a HiBiT fusion tag via CRISPR knock-in at its C-terminal region; endogenous in cells; host or cells: GM01501.3 (GM01501 cells engineered by CRISPR knock-in of HiBiT at the BTK locus)
# Test: BTK degradation assay using the HiBiT Method (Nano-Glo HiBiT Lytic Assay, GM01501.3 cells)
# Format: cell-based
# Settings: HiBiT Degradation on GM01501.3 BTK @ 6 hours
# In short: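 CRISPR knock-in GM01501.3 cells expressing endogenous BTK with C-terminal HiBiT tag, treated 6 h at 37 °C with compounds, 11-point half-log titration from 10 μM top, duplicates. Remaining BTK quantified by Nano-Glo HiBiT lytic luminescence versus DMSO controls; DC50 reported.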
# T1 sequence (Q06187 whole entry, the tested form may be a part): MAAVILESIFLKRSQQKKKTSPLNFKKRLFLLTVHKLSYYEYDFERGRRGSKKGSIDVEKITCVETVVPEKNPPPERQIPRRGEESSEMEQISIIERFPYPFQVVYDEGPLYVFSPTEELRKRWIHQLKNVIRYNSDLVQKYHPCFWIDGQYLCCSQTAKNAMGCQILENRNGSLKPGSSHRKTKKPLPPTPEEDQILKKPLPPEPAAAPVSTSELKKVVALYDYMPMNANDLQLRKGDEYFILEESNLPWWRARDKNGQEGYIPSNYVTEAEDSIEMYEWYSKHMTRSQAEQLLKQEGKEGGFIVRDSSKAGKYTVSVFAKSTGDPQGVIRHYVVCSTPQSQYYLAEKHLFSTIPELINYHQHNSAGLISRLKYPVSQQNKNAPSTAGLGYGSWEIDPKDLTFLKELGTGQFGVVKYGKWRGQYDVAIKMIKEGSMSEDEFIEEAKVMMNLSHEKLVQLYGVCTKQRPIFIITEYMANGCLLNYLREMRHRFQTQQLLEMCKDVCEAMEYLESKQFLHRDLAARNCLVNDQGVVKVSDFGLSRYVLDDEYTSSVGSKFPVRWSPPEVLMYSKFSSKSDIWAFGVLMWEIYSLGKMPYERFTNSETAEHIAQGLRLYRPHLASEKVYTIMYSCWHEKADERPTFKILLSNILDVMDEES
row,SMILES,DC50
1,"Cc1cc(-c2ncnn3cc(CN4CCN(CCCc5ccc(NC6CCC(=O)NC6=O)cc5)CC4)cc23)ccc1CNC(=O)c1noc(C(C)(C)C)n1 (stereo not shown) [Example 126, 5-tert-butyl-N-[[4-[6-[[4-[3-[4-[(2,6-dioxo-3-piperidyl)amino]phenyl]propyl]piperazin-1-yl]methyl]pyrrolo[2,1-f][1,2,4]triazin-4-yl]-2-methyl-phenyl]methyl]-1,2,4-oxadiazole-3-carboxamide]",100 to 500 nM
2,"CC(C)(C)OC1CN(C(=O)NCc2ccc(-c3ncnn4cc(-c5ccc(CN6CCC(c7ccc(NC8CCC(=O)NC8=O)cc7)CC6)c(F)c5)cc34)cc2F)C1 (stereo not shown) [Example 221, 3-(tert-butoxy)-N-(4-(6-(4-((4-(4-((2,6-dioxopiperidin-3-yl)amino)phenyl)piperidin-1-yl)methyl)-3-fluorophenyl)pyrrolo[2,1-f][1,2,4]triazin-4-yl)-2-fluorobenzyl)azetidine-1-carboxamide]",< 100 nM
3,"CC(C)(C)c1nc(C(=O)NCc2ccc(-c3ncnn4cc(-c5ccc(CN6CCCC(Cc7ccc(OC8CCC(=O)NC8=O)cc7)C6)cn5)cc34)cc2F)no1 (stereo not shown) [Example 227, 5-(tert-butyl)-N-(4-(6-(5-((3-(4-((2,6-dioxopiperidin-3-yl)oxy)benzyl)piperidin-1-yl)methyl)pyridin-2-yl)pyrrolo[2,1-f][1,2,4]triazin-4-yl)-2-fluorobenzyl)-1,2,4-oxadiazole-3-carboxamide]",100 to 500 nM
4,"Cc1cc(-c2ccnc3sc(CCCCN4CCC(c5ccc(NC6CCC(=O)NC6=O)cc5)CC4)cc23)ccc1CNC(=O)c1noc(C(C)(C)C)n1 (stereo not shown) [Example 158, 5-tert-butyl-N-[[4-[2-[4-[4-[4-[(2,6-dioxo-3-piperidyl)amino]phenyl]-1-piperidyl]butyl]thieno[2,3-b]pyridin-4-yl]-2-methyl-phenyl]methyl]-1,2,4-oxadiazole-3-carboxamide]",100 to 500 nM
5,"Cc1cc(-c2ncnn3cc(CCN4CCC(c5ccc6c(N7CCC(=O)NC7=O)noc6c5)CC4)cc23)ccc1CNC(=O)c1noc(C(C)(C)C)n1 [Example 272, 5-(tert-butyl)-N-(4-(6-(2-(4-(3-(2,4-dioxotetrahydropyrimidin-1(2H)-yl)benzo[d]isoxazol-6-yl)piperidin-1-yl)ethyl)pyrrolo[2,1-f][1,2,4]triazin-4-yl)-2-methylbenzyl)-1,2,4-oxadiazole-3-carboxamide]",> 1000 nM
6,"CC(C)(C)c1nc(C(=O)NCc2ccc(-c3ncnn4cc(-c5ccc(CN6CCC(c7ccc(NC8CCC(=O)NC8=O)cc7)CC6)cc5)cc34)cc2F)no1 (stereo not shown) [Example 44, 5-tert-butyl-N-[[4-[6-[4-[[4-[4-[(2,6-dioxo-3-piperidyl)amino]phenyl]-1-piperidyl]methyl]phenyl]pyrrolo[2,1-f][1,2,4]triazin-4-yl]-2-fluoro-phenyl]methyl]-1,2,4-oxadiazole-3-carboxamide]",< 100 nM
7,"Cc1cc(-c2ccnc3cc(CCCCN4CCC(c5ccc6c(N7CCC(=O)NC7=O)nn(C)c6c5)CC4)nn23)ccc1CNC(=O)c1noc(C(C)(C)C)n1 [Example 300, 5-(tert-butyl)-N-(4-(2-(4-(4-(3-(2,4-dioxotetrahydropyrimidin-1(2H)-yl)-1-methyl-1H-indazol-6-yl)piperidin-1-yl)butyl)pyrazolo[1,5-a]pyrimidin-7-yl)-2-methylbenzyl)-1,2,4-oxadiazole-3-carboxamide]",< 100 nM

# Second part, the compound after the results:
row,DC50,SMILES
1,< 100 nM,Cn1nc(N2CCC(=O)NC2=O)c2ccc(C3CCN(CCc4cc5c(-c6ccc(CNC(=O)c7noc(C(C)(C)C)n7)c(F)c6)ncnn5c4)CC3)cc21 [Example 124]
2,< 100 nM,"Cc1cc(-c2ncnn3cc(CCN4CCC(c5ncc(NC6CCC(=O)NC6=O)cc5F)CC4)cc23)ccc1CNC(=O)c1noc(C(C)(C)C)n1 (stereo not shown) [Example 251, 5-(tert-butyl)-N-(4-(6-(2-(4-(5-((2,6-dioxopiperidin-3-yl)amino)-3-fluoropyridin-2-yl)piperidin-1-yl)ethyl)pyrrolo[2,1-f][1,2,4]triazin-4-yl)-2-methylbenzyl)-1,2,4-oxadiazole-3-carboxamide]"
3,< 100 nM,"Cc1cc(-c2ncnn3cc(-c4ccc(CN5CCC(c6ccc(NC7CCC(=O)NC7=O)cc6)CC5)cc4)cc23)ccc1CNC(=O)c1cnc(C(C)(C)C)cn1 (stereo not shown) [Example 82, 5-tert-butyl-N-[[4-[6-[4-[[4-[4-[(2,6-dioxo-3-piperidyl)amino]phenyl]-1-piperidyl]methyl]phenyl]pyrrolo[2,1-f][1,2,4]triazin-4-yl]-2-methyl-phenyl]methyl]pyrazine-2-carboxamide]"
4,< 100 nM,"Cc1cc(-c2ncnn3cc(-c4cnn(CCN5CCN(c6ccc(C7CCC(=O)NC7=O)cn6)CC5)c4)cc23)ccc1CNC(=O)c1noc(C(C)(C)C)n1 (stereo not shown) [Example 298, 5-(tert-butyl)-N-(4-(6-(1-(2-(4-(5-(2,6-dioxopiperidin-3-yl)pyridin-2-yl)piperazin-1-yl)ethyl)-1H-pyrazol-4-yl)pyrrolo[2,1-f] [1,2,4]triazin-4-yl)-2-methylbenzyl)-1,2,4-oxadiazole-3-carboxamide]"
5,< 100 nM,"Cc1cc(-c2ncnn3cc(-c4ccc(OCCCCCCN5CCC(c6ccc(NC7CCC(=O)NC7=O)cc6)CC5)cc4)cc23)ccc1CNC(=O)c1noc(C(C)(C)C)n1 (stereo not shown) [Example 114, 5-tert-butyl-N-[[4-[6-[4-[6-[4-[4-[(2,6-dioxo-3-piperidyl)amino]phenyl]-1-piperidyl]hexoxy]phenyl]pyrrolo[2,1-f][1,2,4]triazin-4-yl]-2-methyl-phenyl]methyl]-1,2,4-oxadiazole-3-carboxamide]"
6,< 100 nM,"Cc1cc(-c2ncnn3cc(-c4cn(C)c(CN5CCC(c6ccc(C7CCC(=O)NC7=O)cc6)CC5)n4)cc23)ccc1CNC(=O)c1noc(C(C)(C)C)n1 (stereo not shown) [Example 209, 5-(tert-butyl)-N-(4-(6-(2-((4-(4-(2,6-dioxopiperidin-3-yl)phenyl)piperidin-1-yl)methyl)-1-methyl-1H-imidazol-4-yl)pyrrolo[2,1-f][1,2,4]triazin-4-yl)-2-methylbenzyl)-1,2,4-oxadiazole-3-carboxamide]"
7,< 100 nM,"Cc1cc(-c2ncnn3cc(-c4ccc(CN5CCC(c6ccc(NC7CCC(=O)NC7=O)cc6)C(F)(F)C5)cc4)cc23)ccc1CNC(=O)c1noc(C(C)(C)C)n1 (stereo not shown) [Example 240, 5-(tert-butyl)-N-(4-(6-(4-((4-(4-((2,6-dioxopiperidin-3-yl)amino)phenyl)-3,3-difluoropiperidin-1-yl)methyl)phenyl)pyrrolo[2,1-f] [1,2,4]triazin-4-yl)-2-methylbenzyl)-1,2,4-oxadiazole-3-carboxamide]"
8,< 100 nM,"CC(C)(C)c1nc(C(=O)NCc2ccc(-c3ncnn4cc(-c5ccc(CN6CCC(c7ccc(NC8CCC(=O)NC8=O)cn7)CC6)cc5)cc34)cc2F)no1 (stereo not shown) [Example 45, 5-tert-butyl-N-[[4-[6-[4-[[4-[5-[(2,6-dioxo-3-piperidyl)amino]-2-pyridyl]-1-piperidyl]methyl]phenyl]pyrrolo[2,1-f][1,2,4]triazin-4-yl]-2-fluoro-phenyl]methyl]-1,2,4-oxadiazole-3-carboxamide]"
9,< 100 nM,"Cc1cc(-c2ccnc3cn(-c4ccc(CN5CCC(c6ccc(NC7CCC(=O)NC7=O)cc6)CC5)cc4)nc23)ccc1CNC(=O)c1noc(C(C)(C)C)n1 (stereo not shown) [Example 223, 5-tert-butyl-N-[[4-[2-[4-[[4-[4-[(2,6-dioxo-3-piperidyl)amino]phenyl]-1-piperidyl]methyl]phenyl]pyrazolo[4,3-b]pyridin-7-yl]-2-methyl-phenyl]methyl]-1,2,4-oxadiazole-3-carboxamide]"
